Test results taken from patent US12258338B2, “Modulators of the integrated stress response pathway” (EVOTEC INTERNATIONAL GMBH, priority 2019, dated 2025).

Tests used:
[1] = tested on: ATF4; assay: HEK-ATF4 High Content Imaging assay (prevention of Tunicamycin induced ISR; ATF4 signal ratio between nucleus and cytoplasm); assay type: cell-based; conditions: Homo sapiens; Wild-type HEK293 cells, Tunicamycin induced ISR, 6 h; read-out: IIEK-ATF4 Activity
Protocol: HEK-ATF4 High Content Imaging Assay
Example compounds were tested in the HEK-ATF4 High Content Imaging assay to assess their pharmacological potency to prevent Tunicamycin induced ISR. Wild-type HEK293 cells were plated in 384-well imaging assay plates at a density of 12,000 cells per well in growth medium (containing DMEM/F12, 10% FBS, 2 mM L-Glutamine, 100 U/mL Penicillin-100 μg/mL Streptomycin) and incubated at 37° C., 5% CO2. 24 h later, the medium was changed to 50 μL assay medium per well (DMEM/F12, 0.3% FBS, 2 mM L-Glutamine, 100 U/mL Penicillin-100 μg/mL Streptomycin). Example compounds were serially diluted in DMSO, spotted into intermediate plates and prediluted with assay medium containing 3.3 μM Tunicamycin to give an 11-fold excess of final assay concentration. In addition to the example compound testing area, the plates also contained multiples of control wells for assay normalization purposes, wells containing Tunicamycin but no example compounds (High control), as well as wells containing neither example compound nor Tunicamycin (Low control). The assay was started by transferring 5 μL from the intermediate plate into the assay plates, followed by incubation for 6 h at 37° C., 5% CO2. Subsequently, cells were fixed (4% PFA in PBS, 20 min at r.t.) and submitted to indirect ATF4 immunofluorescence staining (primary antibody rabbit anti ATF4, clone D4B8, Cell Signaling Technologies; secondary antibody Alexa Fluor 488 goat anti-rabbit IgG (H+L), Thermofisher Scientific). Nuclei were stained using Hoechst dye (Thermofisher Scientific), and plates were imaged on an Opera Phenix High Content imaging platform equipped with 405 nm and 488 nm excitation. Finally, images were analyzed using script based algorithms. The main readout HEK-ATF4 monitored the ATF4 signal ratio between nucleus and cytoplasm. Tunicamycin induced an increase in the overall ATF4 ratio signal, which was prevented by ISR modulating example compounds. In addition, HEK-CellCount readout was derived from counting the number of stained nuclei corresponding to healthy cells. This readout served as an internal toxicity control.

[2] = biological target: T1, human ERG potassium channel (hERG) (Homo sapiens, UniProt Q12809); assay: hERG channel tail current recording using in vitro Rapid ICE (automated patch-clamp, QPatch HTX); assay type: cell-based; conditions: Table 26
T1 construct: expressed in transfected cells; host or cells: HEK293, stably transfected, tetracycline-inducible promoter
T1 sequence (Q12809 whole entry): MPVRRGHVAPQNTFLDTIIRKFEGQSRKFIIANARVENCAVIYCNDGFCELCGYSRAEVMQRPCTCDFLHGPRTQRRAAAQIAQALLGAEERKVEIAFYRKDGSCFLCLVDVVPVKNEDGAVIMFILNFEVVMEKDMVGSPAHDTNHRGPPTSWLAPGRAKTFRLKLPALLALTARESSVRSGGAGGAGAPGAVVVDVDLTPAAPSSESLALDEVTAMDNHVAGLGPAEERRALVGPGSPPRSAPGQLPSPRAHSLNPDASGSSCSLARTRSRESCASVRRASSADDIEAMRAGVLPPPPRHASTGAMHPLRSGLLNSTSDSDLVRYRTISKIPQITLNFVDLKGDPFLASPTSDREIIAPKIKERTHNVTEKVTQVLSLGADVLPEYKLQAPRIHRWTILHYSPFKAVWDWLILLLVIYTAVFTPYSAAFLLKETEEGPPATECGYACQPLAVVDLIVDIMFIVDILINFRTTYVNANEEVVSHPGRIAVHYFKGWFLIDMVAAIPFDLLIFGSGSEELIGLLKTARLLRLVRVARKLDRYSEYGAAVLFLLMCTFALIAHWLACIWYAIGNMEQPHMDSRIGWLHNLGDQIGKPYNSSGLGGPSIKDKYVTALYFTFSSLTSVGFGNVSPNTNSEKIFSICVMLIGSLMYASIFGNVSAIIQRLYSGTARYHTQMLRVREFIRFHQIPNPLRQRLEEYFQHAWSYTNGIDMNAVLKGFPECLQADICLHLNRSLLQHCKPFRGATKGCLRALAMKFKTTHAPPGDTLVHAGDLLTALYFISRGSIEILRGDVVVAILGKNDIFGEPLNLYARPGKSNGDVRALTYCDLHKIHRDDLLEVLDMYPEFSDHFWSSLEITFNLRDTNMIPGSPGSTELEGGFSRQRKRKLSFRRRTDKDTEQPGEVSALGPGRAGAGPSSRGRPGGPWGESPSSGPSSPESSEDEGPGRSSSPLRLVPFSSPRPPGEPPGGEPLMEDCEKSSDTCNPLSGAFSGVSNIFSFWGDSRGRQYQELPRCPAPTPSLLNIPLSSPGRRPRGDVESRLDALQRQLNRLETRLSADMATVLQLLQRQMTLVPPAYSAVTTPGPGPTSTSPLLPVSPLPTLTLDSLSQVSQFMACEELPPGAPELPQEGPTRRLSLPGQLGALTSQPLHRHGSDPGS
Protocol: Protocol—Measure of the Effect on hERG Channel by Tail Current Recording Using In Vitro Rapid ICE
The potency of the example compounds in inhibiting human ERG potassium channel (hERG) tail current was assessed in a recombinant HEK293 cell line stably transfected with hERG cDNA under an inducible promoter, using Rapid ICE (rapid ion channel electrophysiology) assay. Rapid ICE is an automated patch-clamp assay utilizing the QPatch HTX system (Sophion Bioscience A/S). Briefly, inducible HEK hERG cells were cultivated in minimum essential medium supplemented with 10% FBS, 1% non-essential amino acids, 1% sodium pyruvate, 2 mM 1-glutamine, 15 μg/mL blasticidin, and 100 μg/mL hygromycin. hERG channel expression induction was obtained by adding 10 μg/mL tetracycline for 24, 48, or 72 h before recordings.
On the day of the experiment, cells were detached with TrypLE and prepared to be loaded on the instrument. Cells were resuspended in 7 mL of Serum-Free Media containing 25 mM Hepes and soybean trypsin inhibitor and immediately placed in the cell storage tank of the machine. The composition of the extracellular buffer was (mM): NaCl 137, KCl 4, CaCl2 1.8, MgCl2 1.0, d-glucose 10, N-2-hydroxyethylpiperazine-N′-2-ethanesulfonic acid (HEPES) 10, pH 7.4 with 1 M NaOH. The composition of the intracellular solution was (mM): KCl 130, MgCl2 1.0, ethylene glycol-bis(β-aminoethyl ether)-N,N,N′,N′-tetraacetic acid (EGTA) 5, MgATP 5, HEPES 10, pH 7.2 with 1 M KOH. The voltage protocol included the following steps: step from −80 to −50 mV for 200 ms, +20 mV for 4.8 s, step to −50 mV for 5 s, then step to the holding potential of −80 mV. Compounds were dissolved in DMSO and diluted in extracellular buffer to achieve final test concentrations (0.3, 3, and 30 μM) in 0.3% DMSO. The voltage protocol was run and recorded continuously during the experiment. The vehicle, corresponding to 0.3% DMSO in extracellular buffer was then applied for 3 min, followed by the test substance in triplicate. The standard combined exposure time was 5 min. The average of tail current amplitude values recorded from four sequential voltage pulses was used to calculate for each cell the effect of the test substance by calculating the residual current (% control) compared with vehicle pretreatment. Data were reported as % inhibition for each concentration tested, and IC50 values were estimated using QPatch software. At least two cells were tested, and even more if results diverged.

| IC50 [1] | Structure (SMILES) | IC50 [2] |
| --- | --- | --- |
| 1 to 500 nM | O=C(COc1ccc(Cl)c(F)c1)N[C@@H]1CC[C@@H](c2nnc(-c3ccc(Cl)cc3)o2)NC1 [Example 35, 2-(4-chloro-3-fluorophenoxy)-N-[(3R,6S)-6-[5-(4-chlorophenyl)-1,3,4-oxadiazol-2-yl]piperidin-3-yl]acetamide] | 1 to 1000 nM |
| 1 to 500 nM | O=C(COc1ccc(Cl)c(F)c1)N[C@H]1CC[C@H](c2nnc(-c3ccc(Cl)cc3)o2)NC1 [Example 40, 2-(4-chloro-3-fluorophenoxy)-N-[(3S,6R)-6-[5-(4-chlorophenyl)-1,3,4-oxadiazol-2-yl]piperidin-3-yl]acetamide] | 1 to 1000 nM |
| 1 to 500 nM | O=C(COc1ccc(Cl)c(F)c1)N[C@@H]1CC[C@@H](c2nnc(OCCC(F)(F)F)o2)NC1 [Example 42, 2-(4-chloro-3-fluorophenoxy)-N-[(3R,6S)-6-[5-(3,3,3-trifluoropropoxy)-1,3,4-oxadiazol-2-yl]piperidin-3-yl]acetamide] | 1000 to 5000 nM |
| 1 to 500 nM | O=C(COc1ccc(Cl)c(F)c1)N[C@@H]1CC[C@@H](c2nnc(N3CC(OC(F)(F)F)C3)o2)NC1 [Example 43] | > 5000 nM |
| 1 to 500 nM | CN1C[C@H](NC(=O)COc2ccc(Cl)c(F)c2)CC[C@H]1c1nnc(-c2ccc(Cl)cc2)o1 [Example 44, 2-(4-chloro-3-fluorophenoxy)-N-[(3R,6S)-6-[5-(4-chlorophenyl)-1,3,4-oxadiazol-2-yl]-1-methylpiperidin-3-yl]acetamide] | 1 to 1000 nM |
| 1 to 500 nM | CN1C[C@@H](NC(=O)COc2ccc(Cl)c(F)c2)CC[C@@H]1c1nnc(-c2ccc(Cl)cc2)o1 [Example 45, 2-(4-chloro-3-fluorophenoxy)-N-[(3S,6R)-6-[5-(4-chlorophenyl)-1,3,4-oxadiazol-2-yl]-1-methylpiperidin-3-yl]acetamide] | 1 to 1000 nM |
| 1 to 500 nM | CCN1C[C@@H](NC(=O)COc2ccc(Cl)c(F)c2)CC[C@@H]1c1nnc(-c2ccc(Cl)cc2)o1 [Example 46, 2-(4-chloro-3-fluorophenoxy)-N-[(3S,6R)-6-[5-(4-chlorophenyl)-1,3,4-oxadiazol-2-yl]-1-ethylpiperidin-3-yl]acetamide] | 1 to 1000 nM |
| 1 to 500 nM | CCN1C[C@H](NC(=O)COc2ccc(Cl)c(F)c2)CC[C@H]1c1nnc(-c2ccc(Cl)cc2)o1 [Example 47, 2-(4-chloro-3-fluorophenoxy)-N-[(3R,6S)-6-[5-(4-chlorophenyl)-1,3,4-oxadiazol-2-yl]-1-ethylpiperidin-3-yl]acetamide] | 1 to 1000 nM |
| 1 to 500 nM | O=C(COc1ccc(Cl)c(F)c1)N[C@H]1CC[C@H](c2nnc(-c3ccc(Cl)cn3)o2)NC1 [Example 53, 2-(4-chloro-3-fluorophenoxy)-N-[(3S,6R)-6-[5-(5-chloropyridin-2-yl)-1,3,4-oxadiazol-2-yl]piperidin-3-yl]acetamide] | 1000 to 5000 nM |
| 1 to 500 nM | O=C(COc1ccc(Cl)c(F)c1)N[C@H]1CC[C@H](c2nnc(-c3ccc(Cl)c(F)c3)o2)NC1 [Example 54, 2-(4-chloro-3-fluorophenoxy)-N-[(3S,6R)-6-[5-(4-chloro-3-fluorophenyl)-1,3,4-oxadiazol-2-yl]piperidin-3-yl]acetamide] | 1 to 1000 nM |
| 1 to 500 nM | O=C(COc1ccc(Cl)c(F)c1)N[C@H]1CC[C@H](c2nnc(CCCOC(F)(F)F)o2)NC1 [Example 55, 2-(4-chloro-3-fluorophenoxy)-N-[(3S,6R)-6-{5-[3-(trifluoromethoxy)propyl]-1,3,4-oxadiazol-2-yl}piperidin-3-yl]acetamide] | > 5000 nM |
| 500 to 2000 nM | O=C(COc1ccc(Cl)c(F)c1)N[C@H]1CC[C@H](c2nnc(C3CC(OC4CC4)C3)o2)NC1 (stereo partly drawn) [Example 59, 2-(4-chloro-3-fluorophenoxy)-N-[(3S,6R)-6-[5-(3-cyclopropoxycyclobutyl)-1,3,4-oxadiazol-2-yl]piperidin-3-yl]acetamide] | > 5000 nM |
